Experimental data reported in US20190015505A1, “Method of Mediating Cardiovascular Hypertrophy and Perivascular Fibrosis Induced by Angiotensin II” (UNIVERSITY OF MACAU, priority 2017, published 2019).

What was measured:
[1] = system: VSMCs stimulated with AngII; experiment: Pro-fibrotic response: extracellular collagen content (Sirius Red kit) in VSMCs stimulated with AngII; format: cell-based; details: rat VSMCs, 100 nM AngII 48 hours; JG26 1 ̂mol/L, erlotinib 1 ̂mol/L, PBA 10 mmol/L pretreated 30 min; adenovirus 100 m.o.i.
Description: (§1) VSMCs were prepared from thoracic aortas of male Sprague-Dawley rats by the explant method as described previously^21. VSMCs were subcultured in DMEM containing 10% fetal bovine serum, penicillin and streptomycin. Cells from passage 3 to 10 at 80˜90% confluence were made quiescent by incubation with serum-free medium for 2-3 days.
To evaluate pro-fibrotic response, serum-starved VSMCs were stimulated with 100 nM AngII for 48 hours and extracellular cellular collagen content was quantified by Sirius Red collagen quantification kit (Chondrex) according to the manufacture's protocol. Recombinant adenoviral vector encoding rat ADAM17 siRNA was created and specificity and efficiency has been reported^11. VSMCs were infected with 100 m.o.i. adenovirus prior to the AngII stimulation as reported previously^11. ADAM17 selective inhibitor compound #21 (JG26)^8 was generated as reported. VSMCs were pretreated
with 1 ̂mol/L JG26 or vehicle (0.1% DMSO in final) for 30 min prior to the AngII stimulation. 4-phenylbutyrate (PBA) was obtained from Scandinavian Formulas and solubilized in DMEM. VSMCs were pretreated with 10 mmol/L PBA for 30 min.
Erlotinib (OSI Pharmaceuticals) was obtained from Genentech. VSMCs were pretreated with 1 ̂mol/L erlotinib for 30 min.
To test for the role of ADAM17 in AngII-induced vascular fibrosis, extracellular collagen content was evaluated in VSMCs stimulated with AngII. Adenovirus encoding ADAM17 siRNA^11 attenuated the AngII-induced enhancement in collagen content (FIG. 4A and 4B). Treatment of VSMCs with ADAM17 antibody A9B8, a highly-selective ADAM17 inhibitor JG26/compound 21^22, an EGFR kinase inhibitor erlotinib or a chemical ER chaperone PBA also attenuated AngII-induced enhancement in collagen content (FIG. 4C). As shown with the ADAM17 siRNA^11, A9B8 as well as JG26 inhibited AngII-induced EGFR transactivation assessed with an auto-phosphorylation site antibody (FIG. 4D).

EGFR = experiment: AngII-induced EGFR transactivation in VSMCs, immunoblotting with auto-phosphorylation site antibody; format: cell-based; details: rat VSMCs, 100 nM AngII, auto-phosphorylation site antibody (Tyr1068)
Description: as §1
Immunoblotting (IB) was performed as previously described^21. Quiescent VSMCs grown on 6-well plates were stimulated with 100 nM AngII (Sigma) for specified durations. The reaction was terminated by the replacement of medium with 100 ̂L of 1xSDS lysis buffer. 40 ̂L of the cell lysates were subjected to SDS-PAGE gel electrophoresis and electrophoretically transferred to a nitrocellulose membrane. The membranes were then exposed to primary antibodies overnight at 4° C. After incubation with the peroxidase linked secondary antibody for 1 h at room temperature, immunoreactive proteins were visualized using a chemiluminescence reaction kit. […]
To test for the role of ADAM17 in AngII-induced vascular fibrosis, extracellular collagen content was evaluated in VSMCs stimulated with AngII. […] As shown with the ADAM17 siRNA^11, A9B8 as well as JG26 inhibited AngII-induced EGFR transactivation assessed with an auto-phosphorylation site antibody (FIG. 4D).

Compound	AngII-induced enhancement in collagen content [1]	AngII-induced EGFR transactivation (EGFR)
4-phenylbutyrate [PBA]	attenuated	–
C#Cc1cccc(Nc2ncnc3cc(OCCOC)c(OCCOC)cc23)c1 [erlotinib, Erlotinib]	attenuated	–
NC(=O)NCCC[C@@H](NS(=O)(=O)c1ccc(OCc2cc(Br)cc(Br)c2)cc1)C(=O)NO [JG26, reference compound]	attenuated	inhibited
